Measurements from PMC9414676, “Experimental Studies Indicate That ST-2223, the Antagonist of Histamine H3 and Dopamine D2/D3 Receptors, Restores Social Deficits and Neurotransmission Dysregulation in Mouse Model of Autism” (Pharmaceuticals, 2022).

Key:
hH3R = target: T1, hH3R (Homo sapiens, UniProt Q9Y5N1); test: [3H]Nα-methylhistamine binding assay, membranes of HEK cells stably expressing hH3R
T1 construct: expressed in transfected cells
Procedure: In vitro, ST-2223 was evaluated for its H3R affinity on membrane preparations of HEK-293 cells, which stably express the hH3R, by [^3H]N^α-methylhistamine displacement assays.

BTBR mice [1] = test: Social approach test (SAT), sociability (novel mouse vs novel object); type: in vivo
Procedure: (§1) All the mice were randomly divided into nine groups of 5–7 mice each. The mice were injected intraperitonially once daily for 21 days with different doses of ST2223 (2.5, 5, and 10 mg/kg, i.p.), ARP 1 mg/kg or vehicle (1% DMSO in 0.9% normal saline). Group I, B6 mice were injected with vehicle served as control. Group II, BTBR mice were treated with vehicle. Groups III–V, BTBR mice received i.p. injections of different doses of ST2223 (2.5, 5, and 10 mg/kg, i.p.), respectively. Group VI, BTBR mice were injected with ARP (1 mg/kg, i.p.). For abrogation studies, Group VII, BTBR mice were treated with ST2223 (5 mg/kg, i.p.) along with RAM (10 mg/kg, i.p.). Group VIII, B6 mice were co-injected with vehicle and RAM (10 mg/kg, i.p). All treatments and vehicle (VEH) were administered 30–45 min before each behavioral test. The doses of these drugs were selected based on previous reports. Behavioral testing was performed between 9:00 am and 3:00 pm in an order randomized by group and in the following sequence: social approach test (SAT) and open field locomotor test (OFL). The chronic treatment started one week before the behavioral test and was continued for a total of 21 days as described above (Figure 7). Following behavioral tests, i.e., on day 21 of systemic treatment, five of the animals were sacrificed. The animals were deeply anesthetized with pentobarbital (40 mg/kg, i.p., body weight). To wash out the blood, cardiac perfusion was carried out using 0.01 M phosphate-buffered saline (PBS) at pH 7.4. The brains were quickly removed and placed on an ice plate, where the cerebellum, hippocampus, prefrontal cortex, and striatum were excised from the brain and snap-frozen in liquid nitrogen for later LC-MS/MS analysis.
The social approach test (SAT) was performed using an automated three-chamber device (EthoVision® Software, Noldus, The Netherlands) as previously described. The transparent polycarbonate chamber is rectangular and is composed of three interconnected partitions (homemade), which are separated by two sliding doors. In brief, after 10 min of habituation, the study mouse was placed in the central chamber with the doors opened, and the mouse was given the choice to interact with either an empty plastic cup located in one side chamber, referred to as a novel object (NO), or a similar plastic cup with an unfamiliar mouse inside it located in the opposite chamber, referred to as a novel mouse (NM), which was matched in age, sex, and strain with test mouse. To avoid innate side preferences, the plastic cup for NO and NM were randomly placed in either chamber and the placement was changed between studies and between mice. For 10 min, the test mouse was allowed to explore all three chambers and cups, and the time spent interacting with NO and NM (sniffing) was automatically recorded by EthoVision® Software. Immediately after this session, a novel mouse is kept in the empty cup and is referred to as novel mouse (NM), and the mouse in the other cup from the earlier session is referred to as familiar mouse (FM). The study mouse is allowed to explore the three chambers for 10 min, and the time spent for interacting with both mice was automatically recorded, to assess social novelty preference. Eight groups of 7 mice/group were used for the SAT. To allow the direct comparison of social behavior between the treated groups, the sociability index (SI) and social novelty index (SNI) were calculated with the following formula, as previously described: SI=(Time exploring NM−Time exploring NO)/(Time exploring NM+Time exploring NO) SNI=(Time exploring NM−Time exploring FM)/(Time exploring NM+Time exploring FM)

BTBR mice [2] = test: Social approach test (SAT), social novelty preference (novel mouse vs familiar mouse); type: in vivo; settings: for preference to novel mouse (NM) over familiar mouse (FM) vs VEH-treated BTBR mice: p < 0.001
Procedure: as §1
The social approach test (SAT) was performed using an automated three-chamber device (EthoVision® Software, Noldus, The Netherlands) as previously described. The transparent polycarbonate chamber is rectangular and is composed of three interconnected partitions (homemade), which are separated by two sliding doors. […] For 10 min, the test mouse was allowed to explore all three chambers and cups, and the time spent interacting with NO and NM (sniffing) was automatically recorded by EthoVision® Software. […] The study mouse is allowed to explore the three chambers for 10 min, and the time spent for interacting with both mice was automatically recorded, to assess social novelty preference. […] To allow the direct comparison of social behavior between the treated groups, the sociability index (SI) and social novelty index (SNI) were calculated with the following formula, as previously described: SI=(Time exploring NM−Time exploring NO)/(Time exploring NM+Time exploring NO) SNI=(Time exploring NM−Time exploring FM)/(Time exploring NM+Time exploring FM)

BTBR mice [3] = test: Open field locomotor test (OFL), anxiety-like behavior and locomotion; type: in vivo
Procedure: as §1
Open field locomotor test (OFL) systematically assesses exploratory activity based on subjecting an animal to an unfamiliar environment whose escape is prevented by surrounding walls. It is a model of anxiety-like behavior, suitable for assessing motor activity as a reaction to an unknown environment, i.e., locomotion motivated by exploration. Both general locomotor activity and anxiety-related behaviors were assessed as the mice were placed individually inside an open field arena (45 × 45 × 30 cm) and were allowed to move freely for 10 min [80]. Mice were introduced into the center area of the arena (23 × 23 cm) and given 5 min habituation before actual behaviors recording. The overall distance moved inside the complete arena and time spent in the center and periphery was recorded for 10 min using CCD camera-assisted motion tracking equipment and software program (EthoVision 3.1, Noldus Information Technology, The Netherlands). Measurements obtained included total distance traveled and center and periphery time spent for […]. After each testing sessions, chambers we cleaned with 70% ethanol, and enough time was allowed for ethanol evaporation and odor dissipation. When evaluating the results, more time spent in the center indicated low levels of anxiety-like behaviors and total distance travelled represented locomotor activity.

[4] = ST-2223 5 mg/kg i.p. chronic, p < 0.05
[5] = ST-2223 10 mg/kg i.p. chronic, p < 0.05

T1 sequence (Q9Y5N1 whole entry): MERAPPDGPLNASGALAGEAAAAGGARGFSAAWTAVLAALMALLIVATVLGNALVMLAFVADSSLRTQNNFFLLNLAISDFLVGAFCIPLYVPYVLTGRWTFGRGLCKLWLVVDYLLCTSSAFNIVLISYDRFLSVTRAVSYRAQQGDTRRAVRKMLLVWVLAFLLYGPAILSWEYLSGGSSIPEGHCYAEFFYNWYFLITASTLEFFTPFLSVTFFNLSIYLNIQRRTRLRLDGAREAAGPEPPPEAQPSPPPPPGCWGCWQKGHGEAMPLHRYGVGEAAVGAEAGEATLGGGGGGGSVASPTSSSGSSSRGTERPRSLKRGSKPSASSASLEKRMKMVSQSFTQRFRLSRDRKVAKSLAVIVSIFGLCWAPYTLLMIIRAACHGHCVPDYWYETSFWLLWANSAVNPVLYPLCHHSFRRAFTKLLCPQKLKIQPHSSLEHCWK

COc1ccccc1N1CCN(CCCCNC(=O)c2ccc3cc(OCCCN4CCCCC4)ccc3c2)CC1 [ST-2223, N-(4-(4-(2-methoxyphenyl)piperazin-1-yl)butyl)-6-(3-(piperidin-1-yl)propoxy)-2-naphthamide]
Ki (hH3R): 4.6 nM | time spent with novel mouse (NM) vs novel object (NO) (BTBR mice [1]; ST-2223 2.5 mg/kg i.p. chronic, p = 0.48): unsuccessful to exert remarked improvement | exploring time spent with NM vs VEH-treated BTBR mice (BTBR mice [1]; ST-2223 2.5 mg/kg i.p. chronic, p > 0.05): not a significant level | exploring time spent with NM vs VEH-treated BTBR mice (BTBR mice [1]; ST-2223 5 mg/kg i.p. chronic, p < 0.001): significantly improved exploring time spent with NM | time spent with novel mouse (NM) vs novel object (NO) (BTBR mice [1]; ST-2223 5 mg/kg i.p. chronic, p < 0.01): significantly enhanced time spent with the NM | sociability index (SI) vs VEH-treated BTBR mice (BTBR mice [1]; [4]): significant improvement in sociability | time spent with novel mouse (NM) vs novel object (NO) (BTBR mice [1]; ST-2223 10 mg/kg i.p. chronic, p = 0.53): unsuccessful to exert remarked improvement | social novelty index (SNI) (BTBR mice [2]; ST-2223 5 mg/kg i.p. chronic, no significant difference to control B6): significantly improved social novelty performance | preference to novel mouse (NM) over familiar mouse (FM) vs VEH-treated BTBR mice (BTBR mice [2]; ST-2223 5 mg/kg i.p. chronic): enhanced preference to stranger NM over FM | preference to novel mouse (NM) over familiar mouse (FM) vs VEH-treated BTBR mice (BTBR mice [2]; ST-2223 10 mg/kg i.p. chronic): enhanced preference to stranger NM over FM | time spent in the periphery (BTBR mice [3]; ST-2223 2.5 mg/kg i.p. chronic): no group differences | time spent in the center of the open field (BTBR mice [3]; ST-2223 2.5 mg/kg i.p. chronic, p = 0.84): failed to decrease the time spent in the center of the arena to a significant level | time spent in the center of the open field (BTBR mice [3]; [4]): significantly less time in the central compartment | time spent in the periphery (BTBR mice [3]; [4]): significantly corrected the decreased time | total distance travelled vs VEH-treated BTBR mice (BTBR mice [3]; [4]): significantly decreased the total distance travelled | time spent in the periphery (BTBR mice [3]; ST-2223 10 mg/kg i.p. chronic): no group differences | time spent in the center of the open field (BTBR mice [3]; [5]): significantly less time in the central compartment | total distance travelled vs VEH-treated BTBR mice (BTBR mice [3]; [5]): significantly decreased the total distance travelled
